In patent US6558900B2, “Regulation of apoptosis and in vitro model for studies thereof” (Emory University, priority 1996, dated 2003):

What was measured:
CPP32 = experiment: Reconstitution of dATP-dependent CPP32 activation in HeLa S-100 immunodepleted of cytochrome c; assay type: biochemical, human
Protocol: (§1) Cytochrome c present in the HeLa cell S-100 was immunodepleted as described in the Example 10. In FIG. 7A, 10 μl aliquots of HeLa S-100 (50 μg) (lanes 1 and 2), or 10 μl aliquots of HeLa S-100 immunodepleted of cytochrome c (lanes 3 and 4), or 10 μl of HeLa S-100 immunodepleted of cytochrome c supplemented with 0.2 μg Apaf-2 purified through the Mono S column (H) (lanes 5 and 6), bovine heart cytochrome c (B) (lanes 7 and 8), or rat liver cytochrome c (R) (lanes 9 and 10), were incubated with aliquots of 3 μl in vitro translated, ^35S-labeled CPP32 in the absence (lanes 1, 3, 5, 7, 9) or presence (lanes 2, 4, 6, 8, 10) of 1 mM dATP at 30° C. for 1 hr in a final reaction volume of 20 μl of buffer A. Samples were subjected to SDS-PAGE and transferred to a nitrocellulose filter which were then exposed to film for 16 hr at room temperature. In FIG. 7B, HeLa S-100 (50 μg) immunodepleted of cytochrome c were reconstituted with the indicated amount of Apaf-2 (purified through Mono S column step) in a CPP32 cleavage reaction as described in FIG. 7A. The cleaved products (p20) were quantified in a Fuji-1000 phosphorimager machine and plotted in comparison with that generated by HeLa S-100. In FIG. 7C, aliquots of 50 μl of HeLa S-100 (250 μg) (lanes 1 and 2), or 50 μl of HeLa S-100 immunodepleted of cytochrome c (lanes 3 and 4), or 50 μl of HeLa S-100 immunodepleted of cytochrome c supplemented with 1 μg apaf-2 purified through the Mono S column (H) (lanes 5 and 6), bovine heart cytochrome c (B) (lanes 7 and 8), or rat liver cytochrome c (R) (lanes 9 and 10), were incubated with aliquots of 6 μl hamster liver nuclei in the absence (lanes 1, 3, 5, 7, 9) or presence (lanes 2, 4, 6, 8, 10) of 1 mM dATP at 37° C. for 2 hr in a final reaction volume of 60 μl. The DNA were isolated as described in the Examples, analyzed on 2% agarose gel electrophoresis, and the DNA was visualized by ethidium bromide staining. In FIG. 7D, DNA fragmentation assays were carried out as in FIG. 7C using HeLa S-100 immunodepleted of cytochrome c alone (a,b) or supplemented with Apaf-2 purified through Mono S column step (c,d) in the absence (a,c) or presence of 1 mM dATP (b,d). After 2 hr incubation at 37° C., an aliquot of each reaction (30 μl) was stained with 4′,6′-diamidino-2-phenylindole (DAPI), and observed under a fluorescence microscope with a UV-2A combination filter.
To rule out the possibility that the Apaf-2 activity is due to a minor contaminating protein that co-purified with cytochrome c, an immunodepletion experiment was carried out using a monoclonal antibody against rat cytochrome c. This monoclonal antibody cross-reacts with purified Apaf-2. As shown in FIGS. 7A-7D, HeLa cell S-100 depleted of cytochrome c using the monoclonal anti-cytochrome c antibody lost the dATP-dependent activation of CPP32 and the ability to induce DNA fragmentation in the added nuclei (FIGS. 7A and 7C, lanes 3 and 4). Adding back either the purified Apaf-2 from HeLa cells or the commercial cytochrome c from bovine heart or rat liver to the immunodepleted extracts restored the dATP-dependent activation of CPP32 and DNA fragmentation (FIGS. 7A and 7C, lanes 5-10). The reconstitution of cytochrome c dependent-activation of CPP32 was evident with the addition of 0.01 μg (33 nM) of purified cytochrome c to the cytochrome c-depleted extracts (FIG. 7B).
CPP32 was translated and purified as described above. Aliquot of 3 μl of the in vitro translated CPP32 was incubated with the indicated protein fraction, nucleotides, and 1 mM additional MgCl2 at 30° C. for 1 hour in a final volume of 20 μl of buffer A. At the end of the incubation, 7 μl of 4×SDS sample buffer was added to each reaction. After boiling for 3 min, each sample was subjected to a 15% SDS-polyacrylamide gel electrophoresis (SDS-PAGE). The gel was transferred to a nitrocellulose filter which was subsequently exposed to a Kodak X-OMAT AR X-ray film (Eastman Kodak, Rochester, N.Y.) for 16 hr at room temperature. […]

hamster liver nuclei = experiment: Reconstitution of DNA fragmentation and nuclear morphological change in HeLa S-100 immunodepleted of cytochrome c; assay type: biochemical
Protocol: as §1
To rule out the possibility that the Apaf-2 activity is due to a minor contaminating protein that co-purified with cytochrome c, an immunodepletion experiment was carried out using a monoclonal antibody against rat cytochrome c. This monoclonal antibody cross-reacts with purified Apaf-2. […]

[1] = added to cytochrome c-depleted extracts

Apaf-2: 15 kDa factor bound to phosphocellulose column, purified from HeLa S-100, identified as human cytochrome c
restoration of dATP-dependent activation of CPP32 (CPP32; 0.2 μg added to immunodepleted HeLa S-100, 1 mM dATP): restored
amount at which reconstitution of CPP32 activation was evident (CPP32; [1]): 0.01 µg
concentration at which reconstitution of CPP32 activation was evident (CPP32; [1]): 33 nM
recovered control activity (p20 cleaved product vs HeLa S-100) (CPP32; addition of 0.3 μg): more than 100%
restoration of DNA fragmentation (hamster liver nuclei; 1 μg added to immunodepleted HeLa S-100, 1 mM dATP): restored
nuclear morphological change (DAPI) (hamster liver nuclei; immunodepleted S-100 supplemented with Apaf-2, 1 mM dATP): accompanied by the morphological change in the co-incubated nuclei that is characteristic of apoptosis
